Source: paper PMC9866191, “Novel 9-Benzylaminoacridine Derivatives as Dual Inhibitors of Phosphodiesterase 5 and Topoisomerase II for the Treatment of Colon Cancer” (Molecules, 2023)

Columns and labels:
HCT-116 cells [1] = assay: Cell cycle analysis (PI, flow cytometry); type: cell-based, human; details: 10 µM, 24 h, PI staining
Experimental: To analyze cell cycle changes, cells permeated at 1 × 10^6 × cells/mL were trypsinized and diluted and then fixed in 70% ethanol at 4 °C. Cell cycle arrest in HCT-116 cells following compound exposure was accomplished using propidium iodide (Sigma-Aldrich, St. Louis, MI, USA). The markers were then assessed using a FACS-Caliburflow cytometer (Beckman Coulter, Taipei, Taiwan) and analyzed using WinMDI software. […]
(§1) Figure 3 Apoptosis induction and cell cycle effects of compounds in HCT-116 cells. (A) The apoptotic population of HCT-116 cells was analyzed using flow cytometry after treatment with 10 µM of the test compound for 24 h followed by Annexin V/propidium iodide (PI) staining. (B) After treatment with compound concentrations of 10 µM for 24 h, cells were fixed, stained with propidium iodide (PI), and analyzed for cell cycle distribution. Results are expressed as the means ± SD from three independent experiments (* p < 0.05 and ** p < 0.01 *** p < 0.001, control versus compound).

SF-268 = assay: NCI-60 one-dose screen; type: cell-based; details: Homo sapiens; SF-268, CNS Cancer panel; single dose 10^−5 M; read-out: Growth inhibition %
HCT-116 = assay: MTT cell proliferation assay, HCT-116; details: for % Inhibition at 10 µM: 72 h MTT, means ± SD; for IC50: read-out: IC50 μM, 72 h MTT, means ± SD, three experiments
Experimental: In the MTT assay, 96-well culture plates were used. A total of 7 × 10^4 cells per well were seeded, and test materials were added to the cells at various concentrations [47, 48]. Human cancer and non-cancer cell lines were purchased commercially from the American Type Culture Collection (ATCC). After 72 h, the cytotoxicity of the compounds and paclitaxel (as a positive control group) was detected using the MTT method (thiazolyl blue tetrazolium bromide, Sigma-M2128). Absorbance values at 570 and 620 nm (OD = OD570–OD620) were measured using an ELISA reader (Anthos Labtec Instruments, Salzburg, Austria).

human DNA Topo II = target: T1, human DNA Topo II (Homo sapiens, UniProt P11388); assay: Topo II-mediated relaxation of supercoiled pHOT1 plasmid DNA; type: biochemical; details: for DNA band pattern in Topo II relaxation assay: at 1 and 5 µM doses, similar to doxorubicin; for concentration at which Topo II inhibition (increase of supercoiled DNA) is shown: cell-free relaxation assay, gel
T1 construct: purchased Topogen, Columbus, OH, USA
T1 sequence (P11388 whole entry): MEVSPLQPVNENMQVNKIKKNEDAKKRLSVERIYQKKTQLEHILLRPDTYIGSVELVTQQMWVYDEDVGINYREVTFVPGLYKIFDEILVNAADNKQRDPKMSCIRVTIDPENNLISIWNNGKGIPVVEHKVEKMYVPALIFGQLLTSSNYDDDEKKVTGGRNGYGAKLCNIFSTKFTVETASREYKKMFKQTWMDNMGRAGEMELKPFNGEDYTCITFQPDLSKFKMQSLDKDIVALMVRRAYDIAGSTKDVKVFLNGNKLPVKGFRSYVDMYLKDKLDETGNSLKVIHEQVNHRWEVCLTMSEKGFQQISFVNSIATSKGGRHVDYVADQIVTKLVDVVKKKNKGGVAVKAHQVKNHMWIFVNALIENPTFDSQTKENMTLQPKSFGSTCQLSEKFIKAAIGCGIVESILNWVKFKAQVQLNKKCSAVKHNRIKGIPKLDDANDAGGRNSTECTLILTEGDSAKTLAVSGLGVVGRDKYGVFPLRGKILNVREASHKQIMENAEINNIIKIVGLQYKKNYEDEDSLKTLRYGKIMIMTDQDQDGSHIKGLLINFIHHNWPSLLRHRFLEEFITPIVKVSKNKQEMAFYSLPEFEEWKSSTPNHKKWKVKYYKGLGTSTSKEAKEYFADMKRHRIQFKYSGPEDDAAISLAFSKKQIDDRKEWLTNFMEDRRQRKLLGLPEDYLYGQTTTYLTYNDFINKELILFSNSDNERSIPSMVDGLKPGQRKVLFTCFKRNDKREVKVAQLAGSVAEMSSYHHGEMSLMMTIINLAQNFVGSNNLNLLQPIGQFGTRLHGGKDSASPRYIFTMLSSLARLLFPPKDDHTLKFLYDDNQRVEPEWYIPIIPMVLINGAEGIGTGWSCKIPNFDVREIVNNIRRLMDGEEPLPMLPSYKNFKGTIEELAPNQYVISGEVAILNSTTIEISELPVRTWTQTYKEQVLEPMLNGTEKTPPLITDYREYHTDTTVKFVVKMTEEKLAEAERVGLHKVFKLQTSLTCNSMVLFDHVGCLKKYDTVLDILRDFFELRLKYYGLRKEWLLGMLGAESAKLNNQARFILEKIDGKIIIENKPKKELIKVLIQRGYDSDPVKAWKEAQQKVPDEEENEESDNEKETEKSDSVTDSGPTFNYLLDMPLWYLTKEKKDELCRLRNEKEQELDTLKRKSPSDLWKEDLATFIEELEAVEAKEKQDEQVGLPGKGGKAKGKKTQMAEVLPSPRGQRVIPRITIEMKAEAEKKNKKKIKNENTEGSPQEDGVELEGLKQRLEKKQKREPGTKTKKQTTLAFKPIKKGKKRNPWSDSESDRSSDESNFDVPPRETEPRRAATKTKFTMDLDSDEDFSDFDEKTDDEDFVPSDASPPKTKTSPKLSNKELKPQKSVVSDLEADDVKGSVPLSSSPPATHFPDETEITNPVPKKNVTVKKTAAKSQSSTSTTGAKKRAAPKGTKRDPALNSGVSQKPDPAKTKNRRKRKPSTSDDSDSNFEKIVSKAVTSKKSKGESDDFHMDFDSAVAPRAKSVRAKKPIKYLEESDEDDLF
Experimental: Consequently, the effects of the synthesized compounds on Topo II activity were evaluated with a cell-free assay using a purified human DNA Topo II-protein-mediated relaxation of the negatively supercoiled pHOT1 plasmid DNA [40]. […] Two Topo II inhibitors (doxorubicin and etoposide) were used as positive controls.
The reaction was terminated by adding 2 μL of 10% SDS, followed by 2.5 μL of proteinase K (50 μg/mL) to digest the bound protein. The system was incubated at 37 °C for 15 min. The DNA product was finally analyzed using electrophoresis on a vertical 1.5% agarose gel at 2 volts/cm in 1 × TAE buffer and photographed using the Eagle Eye II system (Stratagene, La Jolla, CA, USA).
Figure 2 Effects of compounds on topoisomerase II activity. Effects on Topo II-mediated relaxation of supercoiled pHOT1 plasmid DNA in a cell-free system. Positive control: etoposide (10 µM); doxorubicin (5 µM) used as Topo II poison (induction of linear DNA); DNA relaxation: plasmid DNA + topo IIα + solvent control. Nick, nicked DNA; Sc, supercoiled DNA; Lin, linear DNA.

HCT-116 cells [2] = assay: Annexin-V/PI apoptosis assay; type: cell-based, human; details: 10 µM, 24 h
Experimental: For the same set of compounds, the apoptosis-inducing effects in HCT-116 cells were assessed using Annexin-V/PI double staining at 10 µM (Figure 3).
The number of apoptotic/necrotic cells was analyzed using flow cytometry following the manufacturer’s protocol. Markers were assessed using a FACS-Caliburflow cytometer (Beckman Coulter, Taipei, Taiwan) and analyzed using WinMDI 2.8 software.
as §1

Structure (SMILES): c1ccc(CNc2c3ccccc3nc3ccccc23)cc1 [Compound 1, Acridin-9-yl-benzyl-amine]
- effect on cell cycle (HCT-116 cells [1]): arrested the cell cycle in the S phase
- inhibition at 10 µM (SF-268): 37.4%
- % Inhibition at 10 µM (HCT-116): 67.16 ± 2.40%
- IC50 (HCT-116): 2.81 ± 0.2 µM

Structure (SMILES): Cc1ccccc1CNc1c2ccccc2nc2ccccc12 [Compound 2, Acridin-9-yl-(2-methylbenzyl)-amine]
- effect on cell cycle (HCT-116 cells [1]): cell cycle arrest in the G2/M phase
- inhibition at 10 µM (SF-268): 57.1%
- % Inhibition at 10 µM (HCT-116): 66.96 ± 0.14%
- IC50 (HCT-116): 4.01 ± 0.17 µM

Structure (SMILES): Cc1cccc(CNc2c3ccccc3nc3ccccc23)c1 [Compound 3, Acridin-9-yl-(3-methylbenzyl)-amine]
- effect on cell cycle (HCT-116 cells [1]): cell cycle arrest in the G2/M phase
- inhibition at 10 µM (SF-268): 48%
- % Inhibition at 10 µM (HCT-116): 66.71 ± 2.10%
- IC50 (HCT-116): 4.6 ± 0.07 µM

Structure (SMILES): Cc1ccc(CNc2c3ccccc3nc3ccccc23)cc1 [Compound 4, Acridin-9-yl-(4-methylbenzyl)-amine]
- effect on cell cycle (HCT-116 cells [1]): increased the number of cells in the S phase and G2/M phase
- inhibition at 10 µM (SF-268): 48.1%
- % Inhibition at 10 µM (HCT-116): 69.31 ± 2.09%
- IC50 (HCT-116): 3.59 ± 0.27 µM

Structure (SMILES): COc1ccccc1CNc1c2ccccc2nc2ccccc12 [Compound 5, Acridin-9-yl-(2-methoxybenzyl)-amine]
- effect on cell cycle (HCT-116 cells [1]): does not affect the cell cycle
- inhibition at 10 µM (SF-268): 34.9%
- % Inhibition at 10 µM (HCT-116): 63.71 ± 0.62%
- IC50 (HCT-116): 6.83 ± 0.31 µM

Structure (SMILES): COc1cccc(CNc2c3ccccc3nc3ccccc23)c1 [Compound 6, Acridin-9-yl-(3-methoxybenzyl)-amine]
- inhibition at 10 µM (SF-268): 28.8%
- melting point: 107 to 109 °C

Structure (SMILES): COc1ccc(CNc2c3ccccc3nc3ccccc23)cc1 [Compound 7, Acridin-9-yl-(4-methoxybenzyl)-amine]
- inhibition at 10 µM (SF-268): 36.6%
- melting point: 116 to 118 °C

Structure (SMILES): Fc1ccccc1CNc1c2ccccc2nc2ccccc12 [Compound 8, Acridin-9-yl-(2-fluorobenzyl)-amine]
- DNA band pattern in Topo II relaxation assay (human DNA Topo II): larger base pair band than nicked DNA
- effect on cell cycle (HCT-116 cells [1]): cell cycle arrest in the G2/M phase
- inhibition at 10 µM (SF-268): 20.1%
- % Inhibition at 10 µM (HCT-116): 66.44 ± 0.80%
- IC50 (HCT-116): 3.05 ± 0.15 µM

Structure (SMILES): Fc1cccc(CNc2c3ccccc3nc3ccccc23)c1 [Compound 9, Acridin-9-yl-(3-fluorobenzyl)-amine]
- DNA band pattern in Topo II relaxation assay (human DNA Topo II): larger base pair band than nicked DNA
- effect on cell cycle (HCT-116 cells [1]): cell cycle arrest in the G2/M phase
- inhibition at 10 µM (SF-268): 37.9%
- % Inhibition at 10 µM (HCT-116): 57.06 ± 1.36%
- IC50 (HCT-116): 7.3 ± 0.33 µM

Structure (SMILES): Fc1ccc(CNc2c3ccccc3nc3ccccc23)cc1 [Compound 10, Acridin-9-yl-(4-fluorobenzyl)-amine]
- effect on cell cycle (HCT-116 cells [1]): increased the number of cells in the S phase and G2/M phase
- inhibition at 10 µM (SF-268): 46.8%
- % Inhibition at 10 µM (HCT-116): 67.57 ± 0.29%
- IC50 (HCT-116): 2.75 ± 0.04 µM

Structure (SMILES): Clc1ccccc1CNc1c2ccccc2nc2ccccc12 [Compound 11, Acridin-9-yl-(2-chlorobenzyl)-amine]
- DNA band pattern in Topo II relaxation assay (human DNA Topo II): larger base pair band than nicked DNA
- concentration at which Topo II inhibition (increase of supercoiled DNA) is shown (human DNA Topo II): 0.04 µM
- effect on cell cycle (HCT-116 cells [1]): cell cycle arrest in the G2/M phase
- inhibition at 10 µM (SF-268): 53.4%
- % Inhibition at 10 µM (HCT-116): 63.49 ± 1.20%
- IC50 (HCT-116): 7.13 ± 0.24 µM

Structure (SMILES): Clc1cccc(CNc2c3ccccc3nc3ccccc23)c1 [Compound 12, Acridin-9-yl-(3-chlorobenzyl)-amine]
- concentration at which Topo II inhibition (increase of supercoiled DNA) is shown (human DNA Topo II): 0.2 µM
- effect on cell cycle (HCT-116 cells [1]): cell cycle arrest in the G2/M phase
- inhibition at 10 µM (SF-268): 39.4%
- % Inhibition at 10 µM (HCT-116): 63.40 ± 7.54%
- IC50 (HCT-116): 4.84 ± 0.05 µM

Structure (SMILES): Clc1ccc(CNc2c3ccccc3nc3ccccc23)cc1 [Compound 13, Acridin-9-yl-(4-chlorobenzyl)-amine]
- effect on cell cycle (HCT-116 cells [1]): cell cycle arrest in the G2/M phase
- inhibition at 10 µM (SF-268): 32.1%
- % Inhibition at 10 µM (HCT-116): 11.67 ± 4.59%
- melting point: 145 to 147 °C

Structure (SMILES): c1coc(CNc2c3ccccc3nc3ccccc23)c1 [Compound 14, Acridin-9-yl-furan-2-ylmethyl-amine]
- DNA band pattern in Topo II relaxation assay (human DNA Topo II): larger base pair band than nicked DNA
- effect on cell cycle (HCT-116 cells [1]): arrested the cell cycle in the S phase
- inhibition at 10 µM (SF-268): 14.3%
- % Inhibition at 10 µM (HCT-116): 58.83 ± 1.72%
- IC50 (HCT-116): 8.41 ± 0.19 µM
- induction of apoptosis (HCT-116 cells [2]): 20%–50%

Structure (SMILES): COc1cccc(CNc2c3ccccc3nc3ccccc23)c1OC [Compound 16, Acridin-9-yl-(2,3-dimethoxybenzyl)-amine]
- inhibition at 10 µM (SF-268): 38.3%
- melting point: 175 to 177 °C

Structure (SMILES): COc1ccc(CNc2c3ccccc3nc3ccccc23)c(OC)c1 [Compound 17, Acridin-9-yl-(2,4-dimethoxybenzyl)-amine]
- inhibition at 10 µM (SF-268): 34.3%
- melting point: 170 to 172 °C

Structure (SMILES): COc1ccc(CNc2c3ccccc3nc3ccccc23)cc1OC [Compound 18, Acridin-9-yl-(3,4-dimethoxybenzyl)-amine]
- DNA band pattern in Topo II relaxation assay (human DNA Topo II): larger base pair band than nicked DNA
- effect on cell cycle (HCT-116 cells [1]): increased the number of cells in the S phase and G2/M phase
- inhibition at 10 µM (SF-268): 60.4%
- induction of apoptosis (HCT-116 cells [2]): 20%–50%

Structure (SMILES): COc1ccc(CNc2c3ccccc3nc3ccccc23)cc1F [Compound 19, Acridin-9-yl-(3-fluoro-4-methoxybenzyl)-amine]
- inhibition at 10 µM (SF-268): 50.9%
- melting point: 145 to 147 °C

Structure (SMILES): Fc1cccc(CNc2c3ccccc3nc3ccccc23)c1F [Compound 20, Acridin-9-yl-(2,3-difluorobenzyl)-amine]
- DNA band pattern in Topo II relaxation assay (human DNA Topo II): larger base pair band than nicked DNA
- effect on cell cycle (HCT-116 cells [1]): cell cycle arrest in the S phase and reduced the percentage of cells in the G2/M phase
- inhibition at 10 µM (SF-268): 16.6%
- % Inhibition at 10 µM (HCT-116): 58.56 ± 3.21%
- IC50 (HCT-116): 4.96 ± 0.02 µM
- induction of apoptosis (HCT-116 cells [2]): 20%–50%

Structure (SMILES): Fc1ccc(CNc2c3ccccc3nc3ccccc23)c(F)c1 [Compound 21, Acridin-9-yl-(2,4-difluorobenzyl)-amine]
- DNA band pattern in Topo II relaxation assay (human DNA Topo II): larger base pair band than nicked DNA
- effect on cell cycle (HCT-116 cells [1]): cell cycle arrest in the G2/M phase
- inhibition at 10 µM (SF-268): 31.4%
- % Inhibition at 10 µM (HCT-116): 67.37 ± 0.67%
- IC50 (HCT-116): 3.95 ± 0.82 µM
- induction of apoptosis (HCT-116 cells [2]): less than 20%

Structure (SMILES): Fc1ccc(CNc2c3ccccc3nc3ccccc23)cc1F [Compound 22, Acridin-9-yl-(3,4-difluorobenzyl)-amine]
- DNA band pattern in Topo II relaxation assay (human DNA Topo II): larger base pair band than nicked DNA
- effect on cell cycle (HCT-116 cells [1]): cell cycle arrest in the G2/M phase
- inhibition at 10 µM (SF-268): 42.8%
- % Inhibition at 10 µM (HCT-116): 56.92 ± 0.61%
- IC50 (HCT-116): 6.99 ± 0.17 µM
- induction of apoptosis (HCT-116 cells [2]): less than 20%

Structure (SMILES): c1ccc(CCNc2c3ccccc3nc3ccccc23)cc1 [Compound 23, Acridin-9-yl-phenethyl-amine]
- inhibition at 10 µM (SF-268): 33.5%
- % Inhibition at 10 µM (HCT-116): 40.12 ± 0.11%
- melting point: 151 to 153 °C

Structure (SMILES): c1csc(-c2ccc(CNc3c4ccccc4nc4ccccc34)cc2)c1 [Compound 24, Acridin-9-yl-(4-thiophen-2-yl-benzyl)-amine]
- DNA band pattern in Topo II relaxation assay (human DNA Topo II): larger base pair band than nicked DNA
- effect on cell cycle (HCT-116 cells [1]): arrested the cell cycle in the S phase
- inhibition at 10 µM (SF-268): 37.1%
- % Inhibition at 10 µM (HCT-116): 57.14 ± 3.10%
- IC50 (HCT-116): 7 ± 0.56 µM
- induction of apoptosis (HCT-116 cells [2]): 20%–50%

Structure (SMILES): COc1ccc2nc3ccccc3c(NCc3ccc(C)cc3)c2c1 [Compound 26, (2-Methoxyacridin-9-yl)-(4-methylbenzyl)-amine]
- inhibition at 10 µM (SF-268): 51.6%
- % Inhibition at 10 µM (HCT-116): 38.11 ± 1.35%
- melting point: 131 to 133 °C

Structure (SMILES): COc1ccc(CNc2c3ccccc3nc3ccc(OC)cc23)cc1 [Compound 27, (2-Methoxyacridin-9-yl)-(4-methoxybenzyl)-amine]
- inhibition at 10 µM (SF-268): 59.8%
- melting point: 168 to 170 °C

Structure (SMILES): COc1ccc2nc3ccccc3c(NCc3ccc(Cl)cc3)c2c1 [Compound 29, (4-Chlorobenzyl)-(2-methoxyacridin-9-yl)-amine]
- inhibition at 10 µM (SF-268): 46.5%
- % Inhibition at 10 µM (HCT-116): 28.83 ± 2.64%
- melting point: 178 to 180 °C
